Measurements as given in publication PMC7377239, “Cardiovascular Effects of Polychlorinated Biphenyls and Their Major Metabolites” (Environmental Health Perspectives, 2020).
Where two headings read alike, the source gives them in different places.

Tests used:
[1] = system: iCell endothelial cells (human iPSC-derived ECs); assay: High-content imaging cytotoxicity in iCell endothelial cells, 24 h; type: cell-based; conditions: Homo sapiens, Endothelial cell, iPSC-EC; for viability at 0.1 µM / activity at 0.1 µM: 0.10 µM; for minimal effective concentration: 100.00 = highest concentration tested
Outline: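 Human iPSC-derived endothelial cells (passages 1–5) were grown to a fibronectin-coated monolayer, then exposed 24 h at 37 °C with 0.5% DMSO vehicle. Staining was Hoechst 33342, MitoTracker Orange and calcein AM, read by high-content imaging. Point of departure came from 4-parameter logistic fits, with a 1-SD vehicle cutoff and 100 µM as the top concentration.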

[2] = system: iCell endothelial cells (human iPSC-derived ECs); assay: Tube formation (tubulogenesis) assay in iCell endothelial cells, 18 h; type: cell-based; conditions: Homo sapiens, Endothelial cell, iPSC-EC; for activity at 0.1 µM: 0.10 µM; for minimal effective concentration: 100.00 = highest concentration tested
Outline: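 iCell ECs (passages 1–5) seeded 7,500 cells/well on reduced-growth-factor Geltrex in starvation medium, exposed overnight at 37°C to compounds in triplicate concentration–response (0.5% DMSO vehicle). Calcein AM staining, 4× imaging, angiogenesis image analysis; readouts normalized to vehicle, four-parameter logistic fit, POD at 1 SD of vehicle; 100 μM assigned NOAEL if no response.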

[3] = 0.00 µM = 100.00, read-out: endo.cyto.24hr
[4] = 0.00 µM = 100.00, read-out: endo.mito.24hr
[5] = 0.00 µM = 100.00, read-out: endo.mitoint.24hr
[6] = 0.00 µM = 100.00, read-out: endo.nma.24hr
[7] = 0.00 µM = 100.00, read-out: endo.tc.24hrs
[8] = read-out: endo.mitoint.24hr POD
[9] = 0.00 µM = 100.00, read-out: endo.mtl.18hr
[10] = 0.00 µM = 100.00, read-out: endo.tlps.18hr
[11] = 0.00 µM = 100.00, read-out: endo.tta.18hr
[12] = 0.00 µM = 100.00, read-out: endo.ttl.18hr

Work on `Clc1ccc(Cl)c(-c2c(Cl)ccc(Cl)c2Cl)c1` [PCB95] yielded a viability at 0.01 µM [1, 3] of 96.8%, an activity at 0.01 µM [1, 4] of 96.7% and an activity at 0.01 µM [1, 5] of 93.2%. For the same compound, the activity at 0.01 µM [1, 6] was 103%, the viability at 0.01 µM [1, 7] was 96.8% and the viability at 0.1 µM [1, 3] was 102%. For the same compound, the activity at 0.1 µM [1, 4] was 102%, the activity at 0.1 µM [1, 5] was 87.2% and the activity at 0.1 µM [1, 6] was 104%. It also gave a viability at 0.1 µM [1, 7] of 102%, a viability at 1 µM [1, 3] of 105% and an activity at 1 µM [1, 4] of 106%. The activity at 1 µM [1, 5] was 84.4%, the activity at 1 µM [1, 6] was 98.6% and the viability at 1 µM [1, 7] was 105%. The viability at 10 µM [1, 3] was 104%, the activity at 10 µM [1, 4] was 104% and the activity at 10 µM [1, 5] was 93.9%. It also gave an activity at 10 µM [1, 6] of 100%, a viability at 10 µM [1, 7] of 104% and a viability at 100 µM [1, 3] of 102%. The activity at 100 µM [1, 4] was 103%, the activity at 100 µM [1, 5] was 93.6% and the activity at 100 µM [1, 6] was 97.4%. The viability at 100 µM [1, 7] was 102%, the minimal effective concentration ([1]; read-out: endo.cyto.24hr POD) was 100 µM and the minimal effective concentration ([1]; read-out: endo.mito.24hr POD) was 100 µM. For the same compound, the minimal effective concentration [1, 8] was 100 µM, the minimal effective concentration ([1]; read-out: endo.nma.24hr POD) was 100 µM and the minimal effective concentration ([1]; read-out: endo.tc.24hrs POD) was 100 µM. The activity at 0.01 µM [2, 9] was 111%, the activity at 0.01 µM [2, 10] was 84.5% and the activity at 0.01 µM [2, 11] was 111%. It also gave an activity at 0.01 µM [2, 12] of 116%, an activity at 0.1 µM [2, 9] of 103% and an activity at 0.1 µM [2, 10] of 85.8%. It also gave an activity at 0.1 µM [2, 11] of 99%, an activity at 0.1 µM [2, 12] of 106% and an activity at 1 µM [2, 9] of 108%. The activity at 1 µM [2, 10] was 115%, the activity at 1 µM [2, 11] was 97.2% and the activity at 1 µM [2, 12] was 104%. It also gave an activity at 10 µM [2, 9] of 109%, an activity at 10 µM [2, 10] of 119% and an activity at 10 µM [2, 11] of 113%. The activity at 10 µM [2, 12] was 123%, the activity at 100 µM [2, 9] was 47% and the activity at 100 µM [2, 10] was 16%. It also gave an activity at 100 µM [2, 11] of 8.76%, an activity at 100 µM [2, 12] of 11% and a minimal effective concentration ([2]; read-out: endo.mtl.18hr POD) of 48.6 µM. For the same compound, the minimal effective concentration ([2]; read-out: endo.tlps.18hr POD) was 53.9 µM, the minimal effective concentration ([2]; read-out: endo.tta.18hr POD) was 48.7 µM and the minimal effective concentration ([2]; read-out: endo.ttl.18hr POD) was 55.7 µM.

`Clc1ccc(-c2cc(Cl)c(Cl)c(Cl)c2)cc1Cl` [PCB126] was tested, and the viability at 0.01 µM [1, 3] was 100%, the activity at 0.01 µM [1, 4] was 99.1% and the activity at 0.01 µM [1, 5] was 79.8%. For the same compound, the activity at 0.01 µM [1, 6] was 97.4%, the viability at 0.01 µM [1, 7] was 100% and the viability at 0.1 µM [1, 3] was 95%. For the same compound, the activity at 0.1 µM [1, 4] was 95.2%, the activity at 0.1 µM [1, 5] was 106% and the activity at 0.1 µM [1, 6] was 97.8%. For the same compound, the viability at 0.1 µM [1, 7] was 95%, the viability at 1 µM [1, 3] was 93.4% and the activity at 1 µM [1, 4] was 93.4%. It also gave an activity at 1 µM [1, 5] of 100%, an activity at 1 µM [1, 6] of 101% and a viability at 1 µM [1, 7] of 93.4%. For the same compound, the viability at 10 µM [1, 3] was 87.7%, the activity at 10 µM [1, 4] was 87.6% and the activity at 10 µM [1, 5] was 110%. For the same compound, the activity at 10 µM [1, 6] was 103%, the viability at 10 µM [1, 7] was 87.7% and the viability at 100 µM [1, 3] was 75.3%. For the same compound, the activity at 100 µM [1, 4] was 74.9%, the activity at 100 µM [1, 5] was 151% and the activity at 100 µM [1, 6] was 98.8%. It also gave a viability at 100 µM [1, 7] of 76.9%, a minimal effective concentration ([1]; read-out: endo.cyto.24hr POD) of 0.33 µM and a minimal effective concentration ([1]; read-out: endo.mito.24hr POD) of 0.33 µM. The minimal effective concentration [1, 8] was 10.2 µM, the minimal effective concentration ([1]; read-out: endo.nma.24hr POD) was 100 µM and the minimal effective concentration ([1]; read-out: endo.tc.24hrs POD) was 0.34 µM. For the same compound, the activity at 0.01 µM [2, 9] was 99.5%, the activity at 0.01 µM [2, 10] was 175% and the activity at 0.01 µM [2, 11] was 91%. For the same compound, the activity at 0.01 µM [2, 12] was 90.1%, the activity at 0.1 µM [2, 9] was 125% and the activity at 0.1 µM [2, 10] was 110%. For the same compound, the activity at 0.1 µM [2, 11] was 130%, the activity at 0.1 µM [2, 12] was 136% and the activity at 1 µM [2, 9] was 104%. It also gave an activity at 1 µM [2, 10] of 99.1%, an activity at 1 µM [2, 11] of 126% and an activity at 1 µM [2, 12] of 125%. The activity at 10 µM [2, 9] was 93.8%, the activity at 10 µM [2, 10] was 52.4% and the activity at 10 µM [2, 11] was 91.2%. The activity at 10 µM [2, 12] was 100%, the activity at 100 µM [2, 9] was 74.1% and the activity at 100 µM [2, 10] was 40.1%. It also gave an activity at 100 µM [2, 11] of 41.4%, an activity at 100 µM [2, 12] of 39.6% and a minimal effective concentration ([2]; read-out: endo.mtl.18hr POD) of 28.1 µM. For the same compound, the minimal effective concentration ([2]; read-out: endo.tlps.18hr POD) was 4.68 µM, the minimal effective concentration ([2]; read-out: endo.tta.18hr POD) was 25.7 µM and the minimal effective concentration ([2]; read-out: endo.ttl.18hr POD) was 38.9 µM.
